Patent US20240018133A1, “MODULATORS OF THE INTEGRATED STRESS PATHWAY” (Calico Life Sciences LLC, priority 2019, published 2024)

System: ATF4 luciferase reporter (human full-length ATF4 5'-UTR fused to firefly luciferase) in HEK293T cells
Assay: ATF4-Luc assay (in vitro model of VWMD): HEK293T cells carrying ATF4 luciferase reporter, tunicamycin-treated
Format: cell-based
Settings: Homo sapiens, HEK-293T, 1 μg/mL tunicamycin, 7 hours, One Glo luminescence
Procedure, shortened: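 Stable HEK293T line with human ATF4 5′-UTR–firefly luciferase reporter treated with 1 μg/mL tunicamycin plus 200 nM compound for 7 h. Luminescence read; EC50 derived.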

SMILES	EC50 [nM]
O=C(COc1ccc(C(F)(F)F)nc1)NC12CC(NC(=O)[C@@H]3C[C@H](O)c4cc(Cl)ccc4O3)(C1)C2 [Compound 299, (2S,4S)-6-chloro-4-hydroxy-N-[3-(2-{[6-(trifluoromethyl)pyridin-3-yl]oxy}acetamido)bicyclo[1.1.1]pentan-1-yl]-3,4-dihydro-2H-1-benzopyran-2-carboxamide]	10 to 50
O=C(COc1ccc(F)c(F)c1)NC12CC(NC(=O)[C@H]3CC(=O)c4cc(Cl)ccc4O3)(C1)C2 [Compound 275, (2R)-6-chloro-N-{3-[2-(3,4-difluorophenoxy)acetamido]bicyclo[1.1.1]pentan-1-yl}-4-oxo-3,4-dihydro-2H-1-benzopyran-2-carboxamide]	< 10
O=C(COc1ccc(Cl)c(Cl)c1)NC12CC(NC(=O)[C@@H]3C[C@H](O)c4cc(F)c(F)cc4O3)(C1)C2 [Compound 208, (2S,4S)—N-{3-[2-(3,4-dichlorophenoxy)acetamido]bicyclo[1.1.1]pentan-1-yl}-6,7-difluoro-4-hydroxy-3,4-dihydro-2H-1-benzopyran-2-carboxamide]	< 10
O=C(COc1ccc(Cl)c(F)c1)NC12CC(NC(=O)[C@@H]3C[C@H](O)c4cc(Cl)c(F)cc4O3)(C1)C2 (single isomer, unassigned) [Compound 265]	< 10
O=C(COc1ccc(C(F)(F)F)nc1)NC12CC(NC(=O)[C@@H]3CC(=O)c4cc(Cl)ccc4O3)(C1)C2 [Compound 335, (2S)-6-chloro-4-oxo-N-[3-(2-{[6-(trifluoromethyl)pyridin-3-yl]oxy}acetamido)bicyclo[1.1.1]pentan-1-yl]-3,4-dihydro-2H-1-benzopyran-2-carboxamide]	50 to 250
O=C(COc1ccc(Cl)c(F)c1)NC12CC(NC(=O)C3CC(O)c4ccc(C(F)(F)F)cc4O3)(C1)C2 (stereo not drawn) [Compound 243, N-{3-[2-(4-chloro-3-fluorophenoxy)acetamido]bicyclo[1.1.1]pentan-1-yl}-4-hydroxy-7-(trifluoromethyl)-3,4-dihydro-2H-1-benzopyran-2-carboxamide]	< 10
O=C(COc1ccc(Cl)c(F)c1)NC12CCC(NC(=O)[C@H]3C[C@@H](O)c4cc(Cl)ccc4O3)(CC1)CC2 [Compound 229, (2R,4R)-6-chloro-N-{4-[2-(4-chloro-3-fluorophenoxy)acetamido]bicyclo[2.2.2]octan-1-yl}-4-hydroxy-3,4-dihydro-2H-1-benzopyran-2-carboxamide]	< 10
O=C(COc1ccc(Cl)c(F)c1)NC12CC(NC(=O)[C@@H]3C[C@H](O)c4cc(F)c(F)cc4O3)(C1)C2 [Compound 253, (2S,4S)—N-{3-[2-(4-chloro-3-fluorophenoxy)acetamido]bicyclo[1.1.1]pentan-1-yl}-6,7-difluoro-4-hydroxy-3,4-dihydro-2H-1-benzopyran-2-carboxamide]	< 10
CS(=O)(=O)N[C@H]1C[C@H](C(=O)NC23CC(NC(=O)COc4ccc(Cl)c(F)c4)(C2)C3)Oc2ccc(Cl)cc21 [Compound 244, (2R,4S)-6-chloro-N-{3-[2-(4-chloro-3-fluorophenoxy)acetamido]bicyclo[1.1.1]pentan-1-yl}-4-[(methanesulfonyl)amino]-3,4-dihydro-2H-1-benzopyran-2-carboxamide]	10 to 50
O=C(COc1ccc(Cl)c(F)c1)NC12CC(NC(=O)[C@@H]3C[C@H](NCC(F)(F)F)c4cc(Cl)ccc4O3)(C1)C2 [Compound 319, (2S,4S)-6-chloro-N-{3-[2-(4-chloro-3-fluorophenoxy)acetamido]bicyclo[1.1.1]pentan-1-yl}-4-[(2,2,2-trifluoroethyl)amino]-3,4-dihydro-2H-1-benzopyran-2-carboxamide]	50 to 250
C[C@]1(C(=O)NC23CC(NC(=O)COc4ccc(Cl)c(F)c4)(C2)C3)C[C@@H](O)c2cc(Cl)ccc2O1 (racemic) [Compound 251, rac-(2R,4R)-6-chloro-N-{3-[2-(4-chloro-3-fluorophenoxy)acetamido]bicyclo[1.1.1]pentan-1-yl}-4-hydroxy-2-methyl-3,4-dihydro-2H-1-benzopyran-2-carboxamide]	10 to 50
O=C(COc1ccc(C(F)(F)F)nc1)NC12CC(NC(=O)[C@H]3CC(=O)c4cc(Cl)ccc4O3)(C1)C2 [Compound 225, (2R)-6-chloro-4-oxo-N-[3-(2-{[6-(trifluoromethyl)pyridin-3-yl]oxy}acetamido)bicyclo[1.1.1]pentan-1-yl]-3,4-dihydro-2H-1-benzopyran-2-carboxamide]	10 to 50
Cc1cc2c(cc1F)C(O)CC(C(=O)NC13CC(NC(=O)COc4ccc(Cl)c(F)c4)(C1)C3)O2 (stereo not drawn) [Compound 347, N-{3-[2-(4-chloro-3-fluorophenoxy)acetamido]bicyclo[1.1.1]pentan-1-yl}-6-fluoro-4-hydroxy-7-methyl-3,4-dihydro-2H-1-benzopyran-2-carboxamide]	< 10
O=C(COc1ccc(Cl)c(F)c1)N[C@@H]1C[C@@H]2C[C@H]1C[C@H]2NC(=O)[C@H]1C[C@@H](O)c2cc(Cl)ccc2O1 (racemic) [Compound 371, (2R,4R)-6-chloro-N-{(1RS,2SR,4RS,5SR)-5-[2-(4-chloro-3-fluorophenoxy)acetamido]bicyclo[2.2.1]heptan-2-yl}-4-hydroxy-3,4-dihydro-2H-1-benzopyran-2-carboxamide]	< 10
O=C(COc1ccc(Cl)c(F)c1)NC12CC(NC(=O)C3CNc4cc(Cl)ccc4O3)(C1)C2 (single isomer, unassigned) [Compound 102]	< 10
Cc1csc(C(=O)NC23CCC(NC(=O)[C@H]4C[C@@H](O)c5cc(Cl)ccc5O4)(CC2)C[C@@H]3O)n1 [Compound 356, N-[(2S)-4-{[(2R,4R)-6-chloro-4-hydroxy-3,4-dihydro-2H-1-benzopyran-2-carbonyl]amino}-2-hydroxybicyclo[2.2.2]octan-1-yl]-4-methyl-1,3-thiazole-2-carboxamide]	50 to 250
O=C(COc1ccc(Cl)c(F)c1)NC12CC(NC(=O)[C@@H]3C[C@H](O)c4cc(Cl)ccc4O3)(C1)C2 (racemic) [Compound 190, rac-(2R,4R)-6-chloro-N-{3-[2-(4-chloro-3-fluorophenoxy)acetamido]bicyclo[1.1.1]pentan-1-yl}-4-hydroxy-3,4-dihydro-2H-1-benzopyran-2-carboxamide]	< 10
O=C(COc1ccc(Cl)c(F)c1)NC12CC(NC(=O)C3CC(=O)c4cc(F)ccc4O3)(C1)C2 (stereo not drawn) [Compound 332, N-{3-[2-(4-chloro-3-fluorophenoxy)acetamido]bicyclo[1.1.1]pentan-1-yl}-6-fluoro-4-oxo-3,4-dihydro-2H-1-benzopyran-2-carboxamide]	< 10
O=C(COc1ccc(Cl)c(F)c1)N[C@@H]1C[C@@H]2O[C@H]1C[C@H]2NC(=O)[C@H]1C[C@@H](O)c2cc(Cl)ccc2O1 (racemic) [Compound 370, (2R,4R)-6-chloro-N-{(1RS,2SR,4RS,5SR)-5-[2-(4-chloro-3-fluorophenoxy)acetamido]-7-oxabicyclo[2.2.1]heptan-2-yl}-4-hydroxy-3,4-dihydro-2H-1-benzopyran-2-carboxamide]	< 10
O=C(COc1cnc(C(F)(F)F)nc1)NC12CC(NC(=O)[C@H]3CC(=O)c4cc(Cl)ccc4O3)(C1)C2 [Compound 329, (2R)-6-chloro-4-oxo-N-[3-(2-{[2-(trifluoromethyl)pyrimidin-5-yl]oxy}acetamido)bicyclo[1.1.1]pentan-1-yl]-3,4-dihydro-2H-1-benzopyran-2-carboxamide]	50 to 250
Cc1ccc2c(=O)cc(C(=O)NC34CC(NC(=O)COc5ccc(Cl)c(F)c5)(C3)C4)oc2c1 [Compound 284, N-{3-[2-(4-chloro-3-fluorophenoxy)acetamido]bicyclo[1.1.1]pentan-1-yl}-7-methyl-4-oxo-4H-1-benzopyran-2-carboxamide]	10 to 50
O=C(COc1ccc(Cl)c(F)c1)NC12CC(NC(=O)[C@@H]3C[C@H](O)c4cc(Cl)ccc4O3)(C1)C2 [Compound 195, (2S,4S)-6-chloro-N-{3-[2-(4-chloro-3-fluorophenoxy)acetamido]bicyclo[1.1.1]pentan-1-yl}-4-hydroxy-3,4-dihydro-2H-1-benzopyran-2-carboxamide]	< 10
O=C(NC12CC(NC(=O)C3CC(=O)c4cc(Cl)ccc4O3)(C1)C2)c1cnc(C(F)F)cn1 (stereo not drawn) [Compound 217, N-{3-[(6-chloro-4-oxo-3,4-dihydro-2H-1-benzopyran-2-carbonyl)amino]bicyclo[1.1.1]pentan-1-yl}-5-(difluoromethyl)pyrazine-2-carboxamide]	50 to 250
O=C(O)CNC1CC(C(=O)NC23CC(NC(=O)COc4ccc(Cl)c(F)c4)(C2)C3)Oc2ccc(Cl)cc21 (stereo not drawn) [Compound 192, {[6-chloro-2-({3-[2-(4-chloro-3-fluorophenoxy)acetamido]bicyclo[1.1.1]pentan-1-yl}carbamoyl)-3,4-dihydro-2H-1-benzopyran-4-yl]amino}acetic acid]	500 to 2000
O=C(NC12CC(NC(=O)[C@H]3C[C@@H](O)c4cc(Cl)ccc4O3)(C1)C2)c1ccc(Cl)c(F)c1 [Compound 378, (2R,4R)-6-chloro-N-[3-(4-chloro-3-fluorobenzamido)bicyclo[1.1.1]pentan-1-yl]-4-hydroxy-3,4-dihydro-2H-1-benzopyran-2-carboxamide]	50 to 250
O=C(COc1ccc(Cl)c(F)c1)NC12CCC(NC(=O)[C@H]3C[C@@H](O)c4cc(Cl)ccc4O3)(C1)C2 [Compound 256, (2R,4R)-6-chloro-N-{4-[2-(4-chloro-3-fluorophenoxy)acetamido]bicyclo[2.1.1]hexan-1-yl}-4-hydroxy-3,4-dihydro-2H-1-benzopyran-2-carboxamide]	< 10
COc1cc2oc(C(=O)NC34CC(NC(=O)COc5ccc(Cl)c(F)c5)(C3)C4)cc(=O)c2cc1OC [Compound 221, N-{3-[2-(4-chloro-3-fluorophenoxy)acetamido]bicyclo[1.1.1]pentan-1-yl}-6,7-dimethoxy-4-oxo-4H-1-benzopyran-2-carboxamide]	> 2000
